Results published in PubChem BioAssay (NCI).
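Test compounds were applied to cells in 96-well plates for 48 hours at 5 doses. GI50 = concentration required for 50% inhibition of growth. TGI: total growth inhibition.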

Experiments:
Experiment in all cases: NCI anticancer screen, dose series, 48 h
K-562 leukemia = tested on: K-562 leukemia
HCT-15 colon = tested on: HCT-15 colon
SK-OV-3 ovarian = tested on: SK-OV-3 ovarian
MDA-MB-435 = tested on: MDA-MB-435
HCT-116 colon = tested on: HCT-116 colon
SK-MEL-2 melanoma = tested on: SK-MEL-2 melanoma
SW-620 colon = tested on: SW-620 colon
DU-145 prostate = tested on: DU-145 prostate
SK-MEL-5 melanoma = tested on: SK-MEL-5 melanoma
NCI-H460 lung = tested on: NCI-H460 lung
UACC-257 melanoma = tested on: UACC-257 melanoma
NCI/ADR-RES ovarian = tested on: NCI/ADR-RES ovarian
NCI-H23 lung = tested on: NCI-H23 lung
A498 renal = tested on: A498 renal
NCI-H522 lung = tested on: NCI-H522 lung
HOP-62 NSCLC = tested on: HOP-62 NSCLC
SN12C renal = tested on: SN12C renal
T-47D breast = tested on: T-47D breast
TK-10 renal = tested on: TK-10 renal
SNB-19 CNS = tested on: SNB-19 CNS
MALME-3M melanoma = tested on: MALME-3M melanoma
KM12 colon = tested on: KM12 colon
SF-268 CNS = tested on: SF-268 CNS
CAKI-1 renal = tested on: CAKI-1 renal
SR leukemia = tested on: SR leukemia
BT-549 breast = tested on: BT-549 breast
OVCAR-3 ovarian = tested on: OVCAR-3 ovarian
EKVX NSCLC = tested on: EKVX NSCLC
MOLT-4 leukemia = tested on: MOLT-4 leukemia
M14 melanoma = tested on: M14 melanoma
LOX IMVI melanoma = tested on: LOX IMVI melanoma
ACHN renal = tested on: ACHN renal
OVCAR-5 ovarian = tested on: OVCAR-5 ovarian
SF-539 CNS = tested on: SF-539 CNS
UACC-62 melanoma = tested on: UACC-62 melanoma
MDA-MB-231 breast = tested on: MDA-MB-231 breast
HCC-2998 colon = tested on: HCC-2998 colon
A549 NSCLC = tested on: A549 NSCLC
COLO 205 colon = tested on: COLO 205 colon
SK-MEL-28 melanoma = tested on: SK-MEL-28 melanoma
HS 578T breast = tested on: HS 578T breast
U251 CNS = tested on: U251 CNS
RXF 393 renal = tested on: RXF 393 renal
786-0 renal = tested on: 786-0 renal
SF-295 CNS = tested on: SF-295 CNS
SNB-75 CNS = tested on: SNB-75 CNS
IGROV1 ovarian = tested on: IGROV1 ovarian
UO-31 renal = tested on: UO-31 renal
HT29 colon = tested on: HT29 colon
MCF7 breast = tested on: MCF7 breast
HL-60(TB) leukemia = tested on: HL-60(TB) leukemia
OVCAR-4 ovarian = tested on: OVCAR-4 ovarian
NCI-H226 lung = tested on: NCI-H226 lung
OVCAR-8 ovarian = tested on: OVCAR-8 ovarian

## CC#CC#Cc1cccc(=O)o1
K-562 leukemia
  GI50: 0.0136 µM
  TGI: > 100 µM
HCT-15 colon
  GI50: 8.08 µM
  TGI: 30.2 µM
SK-OV-3 ovarian
  GI50: 20.5 µM
  TGI: 56.4 µM
MDA-MB-435
  GI50: 3.82 µM
  TGI: 22.7 µM
HCT-116 colon
  GI50: 2.1 µM
  TGI: 5.79 µM
SK-MEL-2 melanoma
  GI50: 3.73 µM
  TGI: 34.3 µM
SW-620 colon
  GI50: 10 µM
  TGI: 24.9 µM
DU-145 prostate
  GI50: 15.7 µM
  TGI: 29.2 µM
SK-MEL-5 melanoma
  GI50: 11.3 µM
  TGI: 26.7 µM
NCI-H460 lung
  GI50: 13.5 µM
  TGI: 29 µM
UACC-257 melanoma
  GI50: 8.58 µM
  TGI: 23.3 µM
NCI/ADR-RES ovarian
  GI50: 18.2 µM
  TGI: > 100 µM
NCI-H23 lung
  GI50: 5.97 µM
  TGI: 21.8 µM
A498 renal
  GI50: 16.5 µM
  TGI: 30 µM
NCI-H522 lung
  GI50: 3.67 µM
  TGI: 16.3 µM
HOP-62 NSCLC
  GI50: 13.8 µM
  TGI: 27 µM
SN12C renal
  GI50: 26.8 µM
  TGI: > 100 µM
T-47D breast
  GI50: 4.35 µM
  TGI: 18.7 µM
TK-10 renal
  GI50: 5.08 µM
  TGI: 18.3 µM
SNB-19 CNS
  GI50: 16.9 µM
  TGI: 30.5 µM
MALME-3M melanoma
  GI50: 2.8 µM
  TGI: 14.1 µM
KM12 colon
  GI50: 4.87 µM
  TGI: 17 µM
SF-268 CNS
  GI50: 4.29 µM
  TGI: 18.1 µM
CAKI-1 renal
  GI50: 2.1 µM
  TGI: 4.78 µM
SR leukemia
  GI50: 1.38 µM
  TGI: 7.2 µM
BT-549 breast
  GI50: 2.37 µM
  TGI: 10.1 µM
OVCAR-3 ovarian
  GI50: 3.34 µM
  TGI: 10.2 µM
EKVX NSCLC
  GI50: 3.14 µM
  TGI: 16.2 µM
MOLT-4 leukemia
  GI50: 1.14 µM
  TGI: > 100 µM
M14 melanoma
  GI50: 9.52 µM
  TGI: 24.3 µM
LOX IMVI melanoma
  GI50: 10.7 µM
  TGI: 24.1 µM
ACHN renal
  GI50: 8.15 µM
  TGI: 20.6 µM
OVCAR-5 ovarian
  GI50: 24.2 µM
  TGI: 40 µM
SF-539 CNS
  GI50: 5.63 µM
  TGI: 26.6 µM
UACC-62 melanoma
  GI50: 2.98 µM
  TGI: 14.6 µM
MDA-MB-231 breast
  GI50: 10.8 µM
  TGI: 24.7 µM
HCC-2998 colon
  GI50: 16 µM
  TGI: 29.5 µM
A549 NSCLC
  GI50: 14.6 µM
  TGI: 31.5 µM
COLO 205 colon
  GI50: 3.85 µM
  TGI: 14.4 µM
SK-MEL-28 melanoma
  GI50: 4.25 µM
  TGI: 16.7 µM
HS 578T breast
  GI50: 10.2 µM
  TGI: 81.4 µM
U251 CNS
  GI50: 11.2 µM
  TGI: 24.9 µM
RXF 393 renal
  GI50: 2.48 µM
  TGI: 6.63 µM
786-0 renal
  GI50: 13.6 µM
  TGI: 28.9 µM
SF-295 CNS
  GI50: 12.8 µM
  TGI: 26.3 µM
SNB-75 CNS
  GI50: 4.75 µM
  TGI: 21 µM
IGROV1 ovarian
  GI50: 4.31 µM
  TGI: 19.8 µM
UO-31 renal
  GI50: 10.2 µM
  TGI: 22.6 µM
HT29 colon
  GI50: 4.17 µM
  TGI: 14.6 µM
MCF7 breast
  GI50: 3.4 µM
  TGI: 18.4 µM
HL-60(TB) leukemia
  GI50: 2.91 µM
  TGI: 18.1 µM
OVCAR-4 ovarian
  GI50: 13 µM
  TGI: 25.6 µM
NCI-H226 lung
  GI50: 21 µM
  TGI: 96.1 µM
OVCAR-8 ovarian
  GI50: 4.89 µM
  TGI: > 100 µM
